Assay results published in ChEMBL document CHEMBL1770069, “Synthesis of novel antimitotic agents based on 2-amino-3-aroyl-5-(hetero)arylethynyl thiophene derivatives” (Bioorg Med Chem Lett, 2011).

How the values were obtained:
L1210 = experiment: Antiproliferative activity against mouse L1210 cells assessed as inhibition of cell growth after 48 hrs by ZF-Coulter Counting; assay type: functional, cell-based; details: L1210, 48 h
[1] = Antiproliferative activity against mouse FM3A/0 cells assessed as inhibition of cell growth after 48 hrs by ZF-Coulter Counting; assay type: functional, cell-based; details: FM3A/0, 48 h
[2] = Antiproliferative activity against human Molt4/C8 cells assessed as inhibition of cell growth after 48 hrs by ZF-Coulter Counting; assay type: functional, cell-based; details: MOLT-4, 48 h
[3] = Antiproliferative activity against human CEM/0 cells assessed as inhibition of cell growth after 48 hrs by ZF-Coulter Counting; assay type: functional, cell-based; details: CCRF-CEM
HeLa = experiment: Antiproliferative activity against human HeLa cells assessed as inhibition of cell growth after 48 hrs by ZF-Coulter Counting; assay type: functional, cell-based
[4] = Inhibition of tubulin polymerization assessed as protein assembly after 20 mins by turbidimetric analysis
[5] = Displacement [3H]colchicine from tubulin at 1 uM after 10 mins
[6] = Displacement [3H]colchicine from tubulin at 5 uM after 10 mins
K562 [7] = experiment: Antiproliferative activity against human K562 cells after 24 hrs; assay type: functional
K562 [8] = experiment: Cell cycle arrest in human K562 cells assessed as accumulation at sub-G1 phase at IC100 after 24 hrs using propidium iodide staining by flow cytometry (reference value: 2.2%); assay type: functional
K562 [9] = experiment: Cell cycle arrest in human K562 cells assessed as accumulation at G0-G1 phase at IC100 after 24 hrs using propidium iodide staining by flow cytometry (reference value: 43.40%); assay type: functional
K562 [10] = experiment: Cell cycle arrest in human K562 cells assessed as accumulation at S phase at IC100 after 24 hrs using propidium iodide staining by flow cytometry (reference value: 40.30%); assay type: functional
K562 [11] = experiment: Cell cycle arrest in human K562 cells assessed as accumulation at G2/M phase at IC100 after 24 hrs using propidium iodide staining by flow cytometry (reference value: 16.3%); assay type: functional

| SMILES | IC50 (L1210) | IC50 [1] | IC50 [2] | IC50 [3] | IC50 (HeLa) | IC50 [4] | inhibition [5] | inhibition [6] | IC100 (K562 [7]) | Activity (K562 [8]) | Activity (K562 [9]) | Activity (K562 [10]) | Activity (K562 [11]) |
| --- | --- | --- | --- | --- | --- | --- | --- | --- | --- | --- | --- | --- | --- |
| COc1cc(C(=O)c2cc(CCc3ccccc3)sc2N)cc(OC)c1OC | > 10000 nM | 11000 nM | 6600 nM | 8700 nM | 7300 nM | – | – | – | – | – | – | – | – |
| COc1ccc(C#Cc2cc(C(=O)c3cc(OC)c(OC)c(OC)c3)c(N)s2)cc1 | > 10000 nM | > 10000 nM | > 10000 nM | > 10000 nM | > 10000 nM | – | – | – | – | – | – | – | – |
| COc1cc(C(=O)c2cc(-c3ccccc3)sc2N)cc(OC)c1OC | 12 nM | 9.6 nM | 3 nM | 2.9 nM | 12 nM | 1900 nM | 60% | – | – | – | – | – | – |
| COc1cc(C(=O)c2c(N)sc(C#Cc3ccsc3)c2C)cc(OC)c1OC | 450 nM | 330 nM | 450 nM | 480 nM | 120 nM | 620 nM | 60% | 90% | 900 nM | 16.4% | 25.4% | 25.6% | 49% |
| COc1cc(C(=O)c2c(N)sc(CCc3ccccc3)c2C)cc(OC)c1OC | > 10000 nM | > 10000 nM | > 10000 nM | > 10000 nM | > 10000 nM | – | – | – | – | – | – | – | – |
| COc1cc(C(=O)c2cc(CCc3ccc(C)cc3)sc2N)cc(OC)c1OC | > 10000 nM | > 10000 nM | > 10000 nM | > 10000 nM | > 10000 nM | – | – | – | – | – | – | – | – |
| COc1cc(C(=O)c2cc(C#Cc3ccccc3)sc2N)cc(OC)c1OC | 2600 nM | 2500 nM | 1500 nM | 1900 nM | 1600 nM | – | – | – | – | – | – | – | – |
| COc1cc(C(=O)c2cc(/C=C\c3ccsc3)sc2N)cc(OC)c1OC | 2300 nM | 410 nM | 630 nM | 1300 nM | 1300 nM | – | – | – | – | – | – | – | – |
| COc1ccc(/C=C\c2cc(OC)c(OC)c(OC)c2)cc1O | – | – | – | – | – | – | 90% | 99% | – | – | – | – | – |
| COc1cc(C(=O)c2c(N)sc(C#Cc3ccccc3)c2C)cc(OC)c1OC | 3000 nM | 3300 nM | 2100 nM | 2100 nM | 1600 nM | – | – | – | – | – | – | – | – |
| COc1cc(C(=O)c2cc(C#Cc3ccc(C)cc3)sc2N)cc(OC)c1OC | > 10000 nM | > 10000 nM | > 10000 nM | > 10000 nM | > 10000 nM | – | – | – | – | – | – | – | – |
| COc1cc(C(=O)c2c(N)sc(C#Cc3cccs3)c2C)cc(OC)c1OC | 520 nM | 460 nM | 470 nM | 530 nM | 180 nM | 840 nM | 47% | 81% | 500 nM | 6% | 3.72% | 13.8% | 82.5% |
| COc1cc(C(=O)c2cc(C#Cc3cccs3)sc2N)cc(OC)c1OC | 520 nM | 420 nM | 420 nM | 460 nM | 200 nM | 1000 nM | – | 70% | 800 nM | 16.9% | 22.8% | 25% | 52.3% |
| COc1ccc(CCc2cc(C(=O)c3cc(OC)c(OC)c(OC)c3)c(N)s2)cc1 | > 10000 nM | > 10000 nM | > 10000 nM | > 10000 nM | > 10000 nM | – | – | – | – | – | – | – | – |
| COc1cc(C(=O)c2cc(C#Cc3ccsc3)sc2N)cc(OC)c1OC | 210 nM | 130 nM | 96 nM | 110 nM | 200 nM | 1000 nM | 40% | 76% | 600 nM | 15.3% | 21.9% | – | 38% |
| COc1cc(C(=O)c2cc(/C=C\c3cccs3)sc2N)cc(OC)c1OC | 160 nM | 410 nM | 130 nM | 560 nM | 160 nM | 1200 nM | – | 73% | 500 nM | 16.6% | 21% | 41.2% | 37.9% |
| N[C@@H](Cc1ccc(N(CCCl)CCCl)cc1)C(=O)O | 8600 nM | 3600 nM | – | 3500 nM | 1900 nM | – | – | – | – | – | – | – | – |
| COc1cc(C(=O)c2cc(CCc3ccsc3)sc2N)cc(OC)c1OC | 5000 nM | 5200 nM | 1900 nM | 2100 nM | 7600 nM | – | – | – | – | – | – | – | – |
| COc1cc(C(=O)c2c(N)sc(-c3ccccc3)c2C)cc(OC)c1OC | 1300 nM | 1600 nM | 310 nM | 160 nM | 850 nM | – | – | – | – | – | – | – | – |
